Reference: patent US20210093714A1, “Combination and method for inhibiting the cancer cells” (NATIONAL TAIWAN UNIVERSITY, priority 2013, published 2021)
Residues, ends and D or L forms follow the SMILES beside them. *: point of attachment. Cbz = O=C(OCc1ccccc1)*

How the values were obtained:
EGFR [1] = experiment: Western blot of CCN2-induced EGFR degradation; type: cell-based, human; conditions: CL1-5 with CCN2
Protocol: (§1) Proteins ([…]) were separated by SDS-PAGE and transferred to a polyvinylidene difluoride membrane (Immobilon-P membrane; Millipore) by electrotransfer. The blot was blocked in a solution of 5% skim milk and 0.1% Tween 20 in PBS. Thereafter, membrane-bound proteins were probed with the following primary antibodies: CCN2, DAPK, phosphorylated ERK, ERK-1, phosphorylated Akt, Akt, TrkA, phosphorylated-Src, Src, b-actin, a-tubulin (Santa Cruz Biotechnology), p-EGFR, and EGFR (Cell Signaling Technology, Danvers, MA, USA). The membrane was washed and then incubated with HRP-conjugated secondary antibodies for 30 min. Enhanced chemiluminescence reagents (Amersham Pharmacia Biotech, Piscataway, N.J., USA) were employed to depict the protein bands on membranes. The light was captured on Kodak X-Omat Blue autoradiography film (PerkinElmer Life Sciences, Boston, Mass., USA).
This embodiment focuses on whether CCN2 interacts with EGFR. At first, the effect of MG132 and CCN2 on the degradation of EGFR in the lung adenocarcinoma cell line, CL1-5, and the effect of cycloheximide and CCN2 on the degradation of EGFR in the lung adenocarcinoma cell line, CL1-5,were observed by western blot analysis, the results shown in FIGS. 4A and 4B. […] On the other hand, cycloheximide can gradually promote CCN2-induced EGFR degradation and attenuated the protein signal intensity(Fold) of EGFR (attenuated from 0.74 to 0.39)(as shown in FIG. 4B) with increasing time (0 hours, 12 hours, 24 hours, 48 hours). Thus, CCN2 can destabilize EGFR and enhance the degradation of EGFR.

ERK = experiment: Western blot of ERK phosphorylation; type: cell-based, human; conditions: CL1-5; PD98059 0, 10, 20 μM; FIG. 6E
Protocol: as §1
This embodiment focuses on the effect of CCN2 on the EGFR-induced signaling pathways. At first, the effect of exogenous CCN2(rCCN2) on the MAPK/AKT signaling pathways in the lung adenocarcinoma cell lines, CL1-5, A549 and CL1-0/siCCN2 was observed by western blot analysis, the results shown in FIG. 3A.

DAPK = experiment: Western blot of DAPK expression; type: cell-based, human; conditions: CL1-5; PD98059 0, 10, 20 μM; FIG. 6E
Protocol: as §1
This embodiment focuses on the downstream signaling in CCN2-induced anoikis. At first, the effect of DAPK which can up-regulate CCN2 played on CCN2 induced anoikis and metastasis inhibition of lung adenocarcinoma cell lineswas observed by RT-PCR, dual luciferase reporter assay and western blot analysis, the results shown in FIGS. 6A to 6C. […] In addition, in the lung adenocarcinoma cell line, CL1-0/siCCN2, DAPK expression is suppressed, and DAPK expression also be suppressed with increasing dose (0 μg, 1μg, 3μg), (as shown on the top right in the FIG. 6C). Therefore, CCN2 induced DAPK expression in time- and dose-dependent manners.

[2] = test system: CCN2 transfected lung adenocarcinoma cell line, CL1-5; experiment: MTT Assay, chemotherapy drugs on CCN2 transfected CL1-5; type: cell-based, human; conditions: suspended CCN2 transfected CL1-5; increasing dose 0 to 10 μM; 24 hrs; FIG. 8A
Protocol: First, the effect of CCN2 on the suspended lung adenocarcinoma cell line, CL1-5, treated with chemotherapy was observed by MTT Assay, the results shown in FIG. 8A (Cells were treated for 24 hrs, *P<0.05, **P<0.01). […] In this embodiment, paclitaxel treatment with a concentration between 1 μM and 10 μM is perferred, and 10 μM is most preferable; doxorubicin treatment with a concentration between 0.5 μM and 10 μM is perferred, and 5 μM is most preferable.

EGFR [3] = experiment: Immunoprecipitation and in vitro binding assay of CCN2 and EGFR; set-up: species or system human; conditions: A549; rEGF 20 ng/mL for 24 h; rCCN2 100 ng/mL; FIG. 2C
Protocol: CCN2 transfectants were seeded overnight and incubated in serum-free media for 24 h. For immunoprecipitations, cells were lysed in an RIPA buffer (150 mM NaCl, 50 mM Tris-base, 5 mM EDTA, 1% NP-40, and 0.25% deoxycholate; pH 7.4). Protein concentrations were determined using the BCA protein assay kit (Pierce, Rockford, Ill., USA). Lysate was incubated for 2 h at 4[…] with gentle rotation with rabbit polyclonal antibodies for human EGFR, CCN2, or Src immobilized onto protein A—sepharose beads (Santa Cruz Biotechnology, Santa Cruz, Calif., USA). Beads were washed twice with an IP buffer (137 mM NaCl, 2.7 mM KCl, 1 mM MgCl2, 1 mM CaCl2, 1% NP-40, 10% glycerol, 1 mg/ml bovine serum albumin, and 20 mM Tris; pH 8.0), boiled in a sodium dodecyl sulfate-polyacrylamide gel electrophoresis (SDS-PAGE) sample buffer, and centrifuged (12000×g, 4° C. for 15 min).
The recombinant proteins rCCN2 (BioVendor Com. Heidelberg, Germany), rEGFR, and rEGF (R&D Techne Corporation) ([…]) were added in binding buffer (50 mM sodium phosphate, pH 7.5, 500 mM NaCl, and I% Nonidet P-40) and incubated with gentle rotation at 4° C. for 2 h. Thereafter, crosslinks were reversed by boiling in an SDS-PAGE sample buffer (containing 0.1M dithiothreitol (DTT)) before loading on SDS-PAGE gels for immunoblotting analysis. […]

EGFR [4] = target: T1, EGFR (Homo sapiens, UniProt P00533); experiment: FACS and western blot, CCN2 domain responsible for EGFR binding; type: cell-based; conditions: suspended A549; rCT 100 ng/mL; FIG. 2G
T1 construct: endogenous in cells; host or cells: CL1-5 and A549 human lung adenocarcinoma cell lines
Protocol: After washing, cells were stained with an FITC-labelled goat anti-rabbit secondary antibody (Santa Cruz Biotechnology) for 30 min in the dark. Analysis was then conducted with an FACS Calibur cytometer (Collaborative Biomedical, BD Biosciences).

For `CC(C)C[C@@H](C=O)NC(=O)[C@H](CC(C)C)NC(=O)[C@H](CC(C)C)NC(=O)OCc1ccccc1` [MG132] (Cbz-Leu-Leu-Leu-aldehyde), the “protein signal intensity(Fold) of EGFR” value (EGFR [1]; MG132, end of time course (24 hours), FIG. 4A) was 1.41 Fold and the “protein signal intensity(Fold) of EGFR” value (EGFR [1]; MG132, start of time course (0 hours), FIG. 4A) was 0.04 Fold.

For `COc1cccc(-c2cc(=O)c3ccccc3o2)c1N` [PD98059, reference compound], the p-ERK (ERK) was “gradually inhibit p-ERK” and the DAPK expression (DAPK) was “gradually increase the DAPK expression”.

With `C[C@@H]1C[C@@H]([C@H](O)CC2CC(=O)NC(=O)C2)C(=O)[C@@H](C)C1` [cycloheximide] the “protein signal intensity(Fold) of EGFR” value (EGFR [1]; cycloheximide, end of time course (48 hours), FIG. 4B) was 0.39 Fold and the “protein signal intensity(Fold) of EGFR” value (EGFR [1]; cycloheximide, start of time course (0 hours), FIG. 4B) was 0.74 Fold.

With `COc1cccc2c1C(=O)c1c(O)c3c(c(O)c1C2=O)C[C@@](O)(C(=O)CO)C[C@@H]3O[C@H]1C[C@H](N)[C@H](O)[C@H](C)O1` [doxorubicin] the cell apoptosis [2] was “increase cell apoptosis more significantly”.

For `CC(=O)O[C@H]1C(=O)[C@@]2(C)[C@H]([C@H](OC(=O)c3ccccc3)[C@]3(O)C[C@H](OC(=O)[C@H](O)[C@@H](NC(=O)c4ccccc4)c4ccccc4)C(C)=C1C3(C)C)[C@]1(OC(C)=O)CO[C@@H]1C[C@@H]2O` [paclitaxel], the cell apoptosis [2] was “increase cell apoptosis more significantly”.

With “EGF: EGFR ligand, recombinant protein (R&D Techne Corporation) [reference compound]” the “effect on physical association between CCN2 and EGFR” value (EGFR [3]) was “do not block the physically association between CCN2 and EGFR”.

B1: rCT: carboxyl-terminal cystine knot (CT) domain of CCN2, CCN2 functional fragment (protein)
chain: KGKKCIRTPKISKPIKFELSGCTSMKTYRAKFCGVCTDGRCCTPHRTTTLPVEFKCPDGEVMKKNMMFIKTCACHYNCPGDNDIFESLYYRKMYGDMA
For B1, the “association of CT-domain of CCN2 with EGFR” value (EGFR [4]) was “has association relationship with EGFR”.
